Key:
HuNoV (GII.4) RdRp = HuNoV (GII.4) RdRp (Norovirus Hu/GII.4/Sydney/NSW0514/2012/AU, UniProt K4L8Z7); test: Quantitative fluorescent RdRp activity assay (PicoGreen, poly(C) template); format: biochemical, human norovirus Sydney 2012; conditions: for IC50: HuNoV (GII.4) RdRp activity, six concentrations 0.1–100 µM, mean ± SD; for inhibition at 20 µM: read-out: inhibition of HuNoV RdRp activity at fixed concentration
Description: The newly synthesised compounds, including the carboxylate ester derivatives 34–35 and 7 from the Core Hopping approach, were evaluated for their enzymatic inhibition of human norovirus Sydney 2012 (HuNoV (GII.4)) RdRp activity in vitro, using a quantitative fluorescent assay. Compounds were tested at six different concentrations (concentration range examined: 0.1–100 µM) and compared to the relative activity of mock treated samples containing the vehicle only (0.5% DMSO [vol/vol]). PPNDS [Pyridoxal-5′-phosphate-6-(2′-naphthylazo-6′-nitro-4′,8′-disulfonate) tetrasodium salt], a previously reported potent inhibitor of NoV RdRp activity, and 1 were used as positive controls. Dose-dependent inhibitory response curves were used to establish IC50 values for the eight test compounds, as reported in Table 1 (see also Supplementary Fig. S1).
The newly prepared compounds 48–60 were initially evaluated against norovirus Sydney 2012 RdRp activity in vitro using a quantitative fluorescent assay. Compounds were tested at a fixed concentration of 20 µM and compared to the relative activity of mock treated samples. PPNDS and 1 were used as positive controls. […] These two rings are structural features present in 1 and in one of its derivatives we have previously reported. […] From these observations, the thiophene ring appears not to influence inhibitory activity. Derivatives in which the central core of 48 has been used to link the two terminal hydrophobic rings of 1 or of its derivatives we have previously reported[25] (55, 57, 58) appear to retain the RdRp inhibitory activity found for 48 (~20% at 20 µM). A similar effect is obtained when a sulfonyl group, as in our hit 1, is used to link ring 2, regardless if it is a thiazole (59) or an unsubstituted phenyl ring (60), to the rest of the molecule. […] Overall, even if showing a reduced biochemical activity in comparison with 1, some of the new derivatives can be considered as modest HuNoV RdRp inhibitors at 20 µM.
Fluorescent RdRp activity assays were carried out as previously described[12],[29]. Briefly, RdRp activity was quantified by monitoring the formation of double-stranded RNA (dsRNA) from a single stranded homopolymeric template, poly(C) (Sigma Aldrich), using the fluorescent dye PicoGreen (Life Technologies, Carlsbad, CA, USA). RdRp assays were performed in 384-well plates, and each reaction mixture contained 400 ng enzyme, 45 μM GTP, 10 ng/μL poly(C) RNA, 2.5 mM MnCl2, 5 mM dithiothreitol, (DTT), 0.01% bovine serum albumin (BSA), and 0.005% Tween 20 in 20 mM Tris-HCl, pH 7.5, with a final reaction volume of 25 μL. The PPNDS and compound 1 were used as a positive controls. RdRps were incubated for 10 mins at 30 °C in the presence of the test compounds or the compound vehicle DMSO (0.5% vol/vol) before addition into the reaction mixture, which was then allowed to run 15 min at 30 °C then terminated with 10 mM EDTA, followed by PicoGreen staining and dsRNA quantitation. GraphPad Prism V6.05 (La Jolla, CA, USA) was used to plot the IC50 values. A secondary gel-based polymerase activity assay was used as a counter-screen as described below, to exclude the possibility of RdRp activity enhancement. Primed elongation activity was examined in a gel-based assay as previously described[12],[29] using the RNA template (PE44-NoV). Gels were imaged using BioRad (Hercules, CA, U.SA) Geldoc Universal Hood II, running BioRad Image Lab software, V4.1, build 16.

[1] = Cytotoxicity by the MTS method on uninfected cells; format: cell-based; conditions: mouse, uninfected RAW 264.7 cells
Description: Cytotoxicity: The cytotoxicity of the Compounds was evaluated by the MTS method, by exposing uninfected cells to the same concentrations of compounds for 3 days. The %cell viability was calculated as (ODtreated/ODCC) × 100, where ODCC is the OD of uninfected untreated cells and ODtreated are uninfected cells treated with compound. The CC50 was defined as the compound concentration that reduces the number of viable cells by 50%[34].

MNV = MNV CPE reduction assay (MTS) in RAW 264.7 cells; format: cell-based, mouse norovirus (MNV-1.CW1); conditions: Norovirus, RAW264.7, in Mus musculus
Description: The newly prepared compounds 2–7 and 34–35 were evaluated for their antiviral effect against the genogroup V mouse norovirus (MNV) using the mouse macrophage cell line RAW264.7. This assay evaluates the ability of the compounds to protect infected cells from the virus-induced cytopathic effect, thus being suitable to identify inhibition of virus replication at every step of the virus life cycle, and representing a robust cellular assay available for the rapid evaluation of potential norovirus inhibitors. Compounds identified using MNV have shown effects against HuNoV in vitro and in vivo, as in the case of nucleoside RdRp inhibitor 2′-C-methylcytidine (2CMC)[34]–[36]. Unfortunately, despite not presenting the aqueous solubility issues we had previously encountered for 1[29], no significant antiviral effect could be observed in this assay for the new compounds up to the maximum concentration tested. The new structural modifications, despite retaining inhibition of the RdRp in an isolated enzyme activity assay and showing no cytotoxic effects at the test concentrations in the MNV antiviral assay (Supplementary Table S1), are correlated with a lack of antiviral activity. As these new structures present the same limitation of most non-nucleoside HuNoV polymerase inhibitors reported so far[22], we were prompted to apply a different computer-aided strategy to further modify the scaffold of 1, with the aim to achieve an antiviral effect in cellular systems. […]
Since the main scope of this work was to find new norovirus inhibitors which show antiviral effects against both the HuNoV RdRp and in norovirus-infected cells, priority was given to the evaluation of most of the new molecules for their antiviral activity against MNV in infected RAW cells. The nucleoside 2′-C-methylcytidine was used as positive control. The test compounds were evaluated at eight different concentrations (range 0.6–100 µM) and their ability to reduce the virus-induced cytopathic effect was assessed.
Cells and virus: MNV (virus strain MNV-1.CW1) was propagated in RAW 264.7 cells grown in DMEM (Life Technologies, Gent, Belgium) supplemented with 10% or 2% FBS, 2 mM L-glutamine, 20 mM HEPES, 0.075 g/L sodium bicarbonate, 1 mM sodium pyruvate, 100 U penicillin/mL and 100 µg/mL streptomycin at 37 °C in a humidified atmosphere of 5% CO2. The human norovirus GI.1 replicon harboring gastric tumor-1 cell line (HGT-NV) (kindly provided by Dr. Ian Goodfellow, University of Cambridge) was maintained in DMEM supplemented with 10% FBS, 2mM L-glutamine, 0.075 g/L sodium bicarbonate and 1.0 mg/ml of Geneticin (G418; Life Technologies), at 37 °C in a humidified atmosphere of 5% CO2[34].
Antiviral assay with MNV: The antiviral activity of the Compounds was determined using an MTS [3-(4,5-dimethylthiazol-2-yl)-5-(3-carboxymethoxyphenyl)-2-(4-sulfophenyl)-2H-tetrazolium]-based cytopathic effect (CPE) reduction assay. […] Then, a MTS-phenazinemethosulfate (MTS/PMS) stock solution [(2 mg/mL MTS (Promega, Leiden, The Netherlands) and 46 µg/mL PMS (Sigma–Aldrich, Bornem, Belgium) in PBS at pH 6–6.5)] was diluted 1/20 in MEM (Life Technologies, Gent, Belgium) and 75 µL were added to each well. After 2 h, the optical density (OD) was read at 498 nm. The %CPE reduction was calculated as [(ODtreated)MNV − ODVC]/[ODCC − ODVC] × 100, where ODCC represents the OD of the uninfected untreated cells, whereas ODVC and (ODtreated)MNV represent the OD of infected untreated cells and virus-infected cells treated with a compound concentration, respectively. The 50% effective concentration (EC50) was defined as the compound concentration that protected 50% of the cells from virus-induced CPE[34].

[2] = Supplementary Table S1, at least two independent experiments
[3] = Table 2, at least three independent experiments
[4] = Table 2, RAW 264.7, range 0.6–100 µM, at least three independent experiments

Structure (SMILES) | IC50 (HuNoV (GII.4) RdRp) [µM] | CC50 at 3 days [1, 2] [µM] | EC50 (MNV; [2]) [µM] | inhibition at 20 µM (HuNoV (GII.4) RdRp) [%] | further results
O=C1NN(c2ccc(C(=O)O)cc2)C(=O)/C1=C/c1ccc(-c2ccc(S(=O)(=O)Nc3ccccc3)cc2)o1 [Compound 2, (E)-4-(3,5-dioxo-4-((5-(4-(N-phenylsulfamoyl)phenyl)furan-2-yl)methylene)pyrazolidin-1-yl)benzoic acid] | 17.2 ± 2.4 | > 100 | > 100 | – | –
C[C@@]1(O)[C@H](O)[C@@H](CO)O[C@H]1n1ccc(N)nc1=O [Compound 2CMC, 2′-C-methylcytidine, reference compound] | – | – | – | – | CC50 at 3 days [1, 3]: 16 ± 2 µM; EC50 (MNV; [4]): 2 ± 1 µM
O=C1NN(c2cccc(C(=O)O)c2)C(=O)/C1=C/c1ccc(-c2ccc(S(=O)(=O)Nc3ccccc3)cc2)o1 [Compound 3, (E)-3-(3,5-dioxo-4-((5-(4-(N-phenylsulfamoyl)phenyl)furan-2-yl)methylene)pyrazolidin-1-yl)benzoic acid] | 22.5 ± 6.5 | > 100 | > 100 | – | –
O=C1NN(c2ccccc2)C(=O)/C1=C/c1ccc(-c2ccc(S(=O)(=O)Nc3ncccn3)cc2)o1 [Compound 4, (E)-4-(5-((3,5-dioxo-1-phenylpyrazolidin-4-ylidene)methyl)furan-2-yl)-N-(pyrimidin-2-yl)benzenesulfonamide] | – | 60 ± 21 | > 50 | – | inhibition at 100 µM (HuNoV (GII.4) RdRp; 100 µM, read-out: inhibition of RdRp activity at the maximum concentration tested): 15%
O=C1NN(c2ccccc2)C(=O)/C1=C/c1ccc(-c2ccc(S(=O)(=O)Nc3ncco3)cc2)o1 [Compound 5, (E)-4-(5-((3,5-dioxo-1-phenylpyrazolidin-4-ylidene)methyl)furan-2-yl)-N-(oxazol-2-yl)benzenesulfonamide] | 12.8 ± 2.6 | > 100 | > 100 | – | –
O=C1NN(c2ccccc2)C(=O)/C1=C/c1ccc(-c2ccc(S(=O)(=O)Nc3nc4ccccc4[nH]3)cc2)o1 [Compound 6, (E)-N-(1H-benzo[d]imidazol-2-yl)-4-(5-((3,5-dioxo-1-phenylpyrazolidin-4-ylidene)methyl)furan-2-yl)benzenesulfonamide] | 26.7 ± 2 | > 100 | 89 ± 2 | – | –
CCOC(=O)c1cccc(N2NC(=O)/C(=C\c3ccc(-c4ccc(S(=O)(=O)Nc5ccccc5)cc4)o3)C2=O)c1 [Compound 35, Ethyl(E)-3-(3,5-dioxo-4-((5-(4-(N-phenylsulfamoyl)phenyl)furan-2-yl)methylene)pyrazolidin-1-yl)benzoate] | 18.9 ± 3.1 | > 100 | > 100 | – | –
O=C(NC(=S)Nc1ccc(N2CCN(C(=O)c3cccs3)CC2)cc1)c1cc2ccccc2s1 [Compound 49, N-((4-(4-(Thiophene-2-carbonyl)piperazin-1-yl)phenyl)carbamothioyl)benzo[b]thiophene-2-carboxamide] | – | – | – | 15 to 20 | CC50 at 3 days [1, 3]: > 100 µM; EC50 (MNV; [4]): > 100 µM
O=C(NC(=S)Nc1ccc(N2CCN(C(=O)c3cccs3)CC2)cc1)c1sc2ccccc2c1C(F)(F)F [Compound 50, N-((4-(4-(Thiophene-2-carbonyl)piperazin-1-yl)phenyl)carbamothioyl)-3-(trifluoromethyl)benzo[b] thiophene-2-carboxamide] | – | – | – | 15 to 20 | –
O=C(NC(=S)Nc1ccc(N2CCN(C(=O)c3cccs3)CC2)cc1)c1ccccc1 [Compound 51, N-((4-(4-(Thiophene-2-carbonyl)piperazin-1-yl)phenyl)carbamothioyl)benzamide] | – | – | – | ~15 | –
O=C(NC(=S)Nc1ccc(N2CCN(C(=O)c3ccccc3)CC2)cc1)c1sc2ccccc2c1Cl [Compound 54, N-((4-(4-Benzoylpiperazin-1-yl)phenyl)carbamothioyl)-3-chlorobenzo[b]thiophene-2-carboxamide] | – | – | – | ≤ 60 | CC50 at 3 days [1, 3]: 4.5 ± 0.7 µM; EC50 (MNV; [4]): > 100 µM
O=C(NC(=S)Nc1ccc(N2CCN(C(=O)c3ccccc3)CC2)cc1)c1ccccc1 [Compound 55, N-((4-(4-Benzoylpiperazin-1-yl)phenyl)carbamothioyl)benzamide] | – | – | – | ~20 | CC50 at 3 days [1, 3]: 61.9 µM; EC50 (MNV; [4]): > 100 µM
O=C(NC(=S)Nc1ccc(N2CCN(C(=O)c3nccs3)CC2)cc1)c1ccccc1 [Compound 58, N-((4-(4-(Thiazole-2-carbonyl)piperazin-1-yl)phenyl)carbamothioyl)benzamide] | – | – | – | ~20 | –
O=C(Nc1ccc(N2CCN(C(=O)c3cccs3)CC2)cc1)c1ccccc1 [Compound 73, N-(4-(4-(thiophene-2-carbonyl)piperazin-1-yl)phenyl)benzamide] | – | – | – | ~40 | –
